From patent publication US6046231A, “Use of 4'-bromoflavone in a cancer chemopreventative composition and method” (The Board of Trustees of the University of Illinois, priority 1999, dated 2000)
Entries after “also recorded” stand apart in the source; their conditions may differ. Read-outs that look alike come from different tables or passages of the source.

Assays:
[1] = system: MCF-7 cells (B[α]P-DNA adducts); assay: Binding of metabolically activated [3H]B[α]P to DNA of cultured MCF-7 cells; assay type: cell-based; conditions: Homo sapiens, MCF7, read-out: IC50, formation of B[α]P-DNA adducts, MCF-7
Protocol: (§1) Effect of 4'-BF on the Binding of Metabolically Activated [^3 H]B[α]P to DNA of Cultured Cells. HepG2 cells or MCF-7 cells were plated at a density of 1×10^6 cells/dish in 6 cm Petri dishes and allowed to incubate for 18 hours. Fresh media containing test samples were added to the cells 2 hours prior to the addition of 1 μM [^3 H]B[α]P (10 Ci/mmol) The test compound and tritiated carcinogen then were incubated for 6 hours. Following incubation, genomic DNA was extracted by the method described by Sharma et al., with minor modifications. Briefly, the cells were washed three times with PBS and harvested by incubation with 0.5 ml of proteinase K (100 μg/ml) in 0.2 M Tris-0.1 M EDTA (pH 8.5) for 10 min at 37° C. The cells were gently scraped from the dishes, transferred to 50 μl of 10% SDS solution, and incubated for 3 hours at 55° C. […] An aliquot of harvested DNA was used for measuring the relative absorbencies at 260 and 280 nm (A2360 nm/A2380 nm=1.7-1.9), and the DNA content was determined by absorbance at 260 nm (1 A2360 nm unit=50 μg). The remaining sample was used for the determination of radioactivity. All experiments were performed in triplicate; percentage inhibition of carcinogen-DNA binding mediated by test samples was calculated as follows: % inhibition=[1-(dpm per μg DNA test cells/dpm per μg DNA control cells)]×100.

[2] = system: DMBA-induced mammary tumors; assay: Inhibition of DMBA-induced mammary carcinogenesis in rats; assay type: in vivo, female Sprague Dawley rat; conditions: for tumor multiplicity (FIG. 9): control 2.63; for mammary tumor multiplicity: control 2.75; for mammary tumor incidence: control 88.9%; for tumor incidence (FIG. 9): control 89.5
Protocol: Inhibition of DMBA-induced Mammary Carcinogensis in Rats. On the basis of a 3-week feeding study, maximum tolerated doses were evaluated, and suitable doses were selected for the study of inhibition of DMBA-induced mammary carcinogenesis in rats. Virgin, female Sprague Dawley rats were obtained from Harlan/Sprague-Dawley at 35 days of age. All animals were placed on a diet of Teklad 4% Rat/Mouse chow at this time. After a quarantine period of 1 week, at 42 days of age, the animals were randomized by weight into six groups and placed on the appropriate experimental diet containing 2000 and 4000 mg 4'-bromoflavone/kg diet. At 50 days of age, the animals received a single i.g. dose of 15 mg of DMBA in sesame oil (or vehicle only) following an overnight fast. The rats were maintained on the 4'-bromoflavone diet for one additional week, and then returned to the basal diet without test agent at 57 days of age. During the experiment, all animals were weighed weekly. Palpation for mammary tumors began 3 weeks after the animals received the DMBA, and continued until termination of the study (120 days post DMBA). The date of appearance and location of all tumors was recorded. Animals were observed twice daily to assess their general health. Moribund animals were sacrificed by CO2 asphyxiation. Moribund animals or animals found dead were necropsied immediately. At the termination of the experiment, all mammary tumors were excised and weighed, and mean tumor weight was established. Tumors for Group 2-5 were frozen. The abdominal/inguinal glands of Group 8 were disected free of lymph nodes; one side was frozen, the other side was fixed. Incidence was evaluated with Fisher's exact test and the Logrank test was used for tumor incidence rate. Tumor multiplicity was calculated using Armitage's test for trends in proportions. Latency and tumor weight were evaluated by an unpaired t-test. Survival was analyzed with log-rank analysis.
Inhibition of DMBA-induced Mammary Tumor Carcinogenesis in Rat. Maximum dose tolerance (MDT) studies (data not included) were performed prior to conducting the chemopreventative studies of 4'-BF in animals. Briefly, a test agent was examined in a three-week study to determine the maximum dose that can be administered without causing suppression of body weight gain or inducing other gross manifestations of toxicity and to determine the effective dose in term of induction of phase II detoxifying enzymes. According to the MDT study, two doses of 4'-BF (2000 and 4000 mg/kg diet) were used for the chemopreventative studies.

[3] = system: HepG2 cells (B[α]P-DNA adducts); assay: Binding of metabolically activated [3H]B[α]P to DNA of cultured HepG2 cells; assay type: cell-based; conditions: Homo sapiens, read-out: IC50, formation of B[α]P-DNA adducts, HepG2
Protocol: as §1

cytochrome P-4501A1 = conditions: cited from earlier work

In the case of `O=c1cc(-c2ccc(Br)cc2)oc2ccccc12` [4'-Bromoflavone], the IC50 [1] is reported as roughly 1700 nM, the “tumor multiplicity (FIG. 9)” value ([2]; 2000 mg/kg diet) is reported as 0.65 tumors/rat and the mammary tumor multiplicity ([2]; 2000 mg/kg diet) is reported as 0.20. For the same compound, the mammary tumor incidence ([2]; 2000 mg/kg diet) was 25%, the “tumor incidence (FIG. 9)” value ([2]; 2000 mg/kg diet) was 30% and the “tumor multiplicity (FIG. 9)” value ([2]; 4000 mg/kg diet) was 0.20 tumors/rat. The mammary tumor multiplicity ([2]; 4000 mg/kg diet) was 0.15, the mammary tumor incidence ([2]; 4000 mg/kg diet) was 15% and the “tumor incidence (FIG. 9)” value ([2]; 4000 mg/kg diet) was 20%. The tumor latency ([2]; 2000 or 4000 mg/kg diet, listed as 4'-BF) was “enhanced greatly; also recorded: greatly increased the tumor latency (P<0.001); also recorded: significantly increased (P<0.01)”, the “incidence and multiplicity of mammary tumors” value ([2]; DMBA-induced) was “significantly inhibited” and the IC50 [3] was roughly 3100 nM. The “levels of cytochrome P-4501A1” value (cytochrome P-4501A1) was “significantly increase” and the “levels of cytochrome P-4501A1” value (cytochrome P-4501A1; listed as 4'-bromoflavone) was “phase I induction”.
